Reference: BigSolDB 2.1

CC(C)=CCC[C@@H](C)[C@H]1CC[C@@]2(C)C3=C(CC[C@]12C)[C@@]1(C)CC[C@H](O)C(C)(C)[C@@H]1CC3
Conditions	solubility (mole fraction)
in DMF, 277.15 K	0.00035
in DMF, 284.65 K	0.00051
in DMF, 289.15 K	0.00063
in DMF, 294.65 K	0.00073
in DMF, 297.35 K	0.00089
in DMF, 300.15 K	0.00103
in DMF, 303.05 K	0.00138
in DMF, 308.46 K	0.00187
in DMF, 318.55 K	0.00294
in DMSO, 293.95 K	0.00015
in DMSO, 297.65 K	0.00019
in DMSO, 302.35 K	0.00024
in DMSO, 307.15 K	0.00031
in DMSO, 312.95 K	0.00042
in DMSO, 318.69 K	0.00057
in DMSO, 337.99 K	0.00136
in acetone, 278.65 K	0.00066
in acetone, 283.75 K	0.00087
in acetone, 288.45 K	0.00105
in acetone, 293.25 K	0.00127
in acetone, 298.05 K	0.00157
in acetone, 302.75 K	0.00193
in acetone, 307.55 K	0.00237
in acetone, 318.36 K	0.0036
in acetonitrile, 277.09 K	3e-05
in acetonitrile, 288.55 K	6e-05
in acetonitrile, 293.35 K	9e-05
in acetonitrile, 298.15 K	0.00013
in acetonitrile, 303.05 K	0.00015
in acetonitrile, 307.55 K	0.00019
in acetonitrile, 312.25 K	0.00026
in acetonitrile, 317.05 K	0.00038
in ethanol, 277.95 K	0.00036
in ethanol, 285.74 K	0.00053
in ethanol, 293.45 K	0.00075
in ethanol, 298.25 K	0.00092
in ethanol, 307.15 K	0.00135
in ethanol, 312.35 K	0.00168
in ethanol, 318.05 K	0.00214
in ethyl acetate, 277.67 K	0.00076
in ethyl acetate, 288.55 K	0.00127
in ethyl acetate, 293.25 K	0.00165
in ethyl acetate, 298.05 K	0.00187
in ethyl acetate, 302.85 K	0.00235
in ethyl acetate, 307.45 K	0.00284
in ethyl acetate, 318.64 K	0.00443
in isopropanol, 278.07 K	0.00047
in isopropanol, 287.81 K	0.0006
in isopropanol, 298.84 K	0.00095
in isopropanol, 307.27 K	0.00159
in methanol, 277.78 K	3e-05
in methanol, 288.15 K	5e-05
in methanol, 298.15 K	9e-05
in methanol, 303.05 K	0.00011
in methanol, 312.15 K	0.00016
in methanol, 316.95 K	0.00021
in methanol, 321.65 K	0.00032
in n-propanol, 278.07 K	0.0009
in n-propanol, 287.81 K	0.00144
in n-propanol, 298.84 K	0.00209
in n-propanol, 307.27 K	0.00304
in n-propanol, 318.93 K	0.00478
